This is an account of results in patent US11957687B2 (REGENERON PHARMACEUTICALS, INC., priority 2019, dated 2024).

What all share (format): biochemical
In one test the target is HSD17B13 (Homo sapiens (Human), UniProt Q7Z5P4). Put plainly: HSD17B13 enzymatic inhibition assay (150 nM or 50 nM HSD17B13). The settings on record: 50 nM HSD17B13; read-out: Inhibition of 50 nM of HSD17B13 IC50.
A further test has as its target HSD17B2 (Homo sapiens (Human), UniProt P37059). Put plainly: HSD17B2 enzymatic blocking assay. The settings on record: 1.8 μM Estradiol, 650 μM NAD; read-out: Inhibition of HSD17B2 IC50. As to the method:
To screen compounds of the disclosure for their ability to block HSD17B2 function, an enzymatic blocking assay was performed. For the assay, HSD17B2 activity was measured by detecting NADH formation from oxidation of Estradiol using a NADH Glo luminescence assay (Promega, #Cat. No. G9062). Compounds of the disclosure were evaluated in a dose titration assay where the compounds were titrated at 10-point dose curve using an Echo-555 liquid handling dispenser. HSD17B2 (SEQ ID NO: 3, expressed in mammalian cells) was added at a final concentration of 2 ng/μL in a buffer containing 50 mM Tris-HCl, pH 7.5, Pluronic F-127 0.05%, Tween20 0.01%, BSA 0.01% into a low volume white 384-well assay plate. Compounds were incubated with the enzyme for 15 min at 20° C. The assay reaction was then initiated by addition of 1.8 μM Estradiol substrate (Sigma, catalog #E2758-250MG, CAS: 50-28-2) and 650 μM NAD co-factor, and the reaction mixture was incubated for 45 min at 20° C. DMSO at a concentration of 0.5% was used as a negative control and a ‘no substrate’ control was used a positive control in the assay. Detection reagent was then added as per manufacturer's instructions, and the plate was subsequently incubated in the dark for 1 hour at room temperature, NADH generated was detected in the luminescence mode on the Envision Perkin Elmer plate reader. The IC50 values were determined using Dotmatics analysis software.

The target in the next test is HSD17B1 (Homo sapiens (Human), UniProt P14061). Put plainly: HSD17B1 enzymatic blocking assay. The conditions noted are these: 25 μM Estradiol, 500 μM NAD; read-out: Inhibition of HSD17B1 IC50. As to the method:
To screen compounds of the disclosure for their ability to block HSD17B1 function, an enzymatic blocking assay was performed. For the assay, HSD17B1 activity was measured by detecting NADH formation from oxidation of Estradiol using a NADH Glo luminescence assay (Promega, #Cat. No. G9062). […] Compounds were incubated with the enzyme for 30 minutes at room temperature. […] DMSO at a concentration of 0.5% was used as a negative control and a ‘no substrate’ control was used a positive control in the assay. Detection reagent was then added as per manufacturer's instructions, and the plate was subsequently incubated in the dark for 1 hour at room temperature, NADH generated was detected in the luminescence mode on the Envision Perkin Elmer plate reader. The IC50 values were determined using Dotmatics analysis software.

pIC50: −log10 of the molar value.

The term pIC50 denotes the IC50 on a negative log10 scale, so that one unit is a factor of ten.

HSD17B1, sequence (P14061 other isoform, or with tags, fused parts or gaps): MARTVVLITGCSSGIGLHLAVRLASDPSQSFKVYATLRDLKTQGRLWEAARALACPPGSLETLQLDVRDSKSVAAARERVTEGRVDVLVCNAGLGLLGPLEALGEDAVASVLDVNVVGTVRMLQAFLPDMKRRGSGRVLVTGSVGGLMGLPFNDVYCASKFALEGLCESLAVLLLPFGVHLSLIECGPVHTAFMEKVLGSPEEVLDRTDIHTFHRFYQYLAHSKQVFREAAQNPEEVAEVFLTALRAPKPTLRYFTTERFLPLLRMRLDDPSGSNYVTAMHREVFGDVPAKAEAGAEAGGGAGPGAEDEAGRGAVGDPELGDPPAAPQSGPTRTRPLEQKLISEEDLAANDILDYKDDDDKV
HSD17B2, sequence (P37059 other isoform, or with tags, fused parts or gaps): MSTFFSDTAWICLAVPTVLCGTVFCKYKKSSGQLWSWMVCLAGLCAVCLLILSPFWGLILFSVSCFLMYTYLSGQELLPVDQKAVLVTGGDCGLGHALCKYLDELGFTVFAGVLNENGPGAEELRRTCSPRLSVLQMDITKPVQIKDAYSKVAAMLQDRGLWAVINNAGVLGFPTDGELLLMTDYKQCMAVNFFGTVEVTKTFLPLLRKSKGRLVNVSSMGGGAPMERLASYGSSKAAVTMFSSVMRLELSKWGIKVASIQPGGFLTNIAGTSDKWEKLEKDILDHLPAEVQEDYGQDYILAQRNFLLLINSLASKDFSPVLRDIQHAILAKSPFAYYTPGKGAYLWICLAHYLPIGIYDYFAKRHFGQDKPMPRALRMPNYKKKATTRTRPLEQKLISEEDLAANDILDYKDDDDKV
HSD17B13, sequence (Q7Z5P4 other isoform, or with tags, fused parts or gaps): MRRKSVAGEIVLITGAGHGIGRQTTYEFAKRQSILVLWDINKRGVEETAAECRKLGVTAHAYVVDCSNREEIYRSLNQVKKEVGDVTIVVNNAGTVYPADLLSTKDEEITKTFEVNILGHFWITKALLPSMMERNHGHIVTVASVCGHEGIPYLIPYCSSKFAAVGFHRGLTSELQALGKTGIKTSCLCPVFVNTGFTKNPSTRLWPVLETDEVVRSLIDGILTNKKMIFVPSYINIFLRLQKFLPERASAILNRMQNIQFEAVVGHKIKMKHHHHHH

With `CCCC1CC(NC(=O)c2ccc(C(F)(F)F)[nH]c2=O)c2ccc(C)cc2O1` (stereo not drawn) [Compound 406, N-(7-methyl-2-propylchroman-4-yl)-2-oxo-6-(trifluoromethyl)-1,2-dihydropyridine-3-carboxamide], the pIC50 on HSD17B13 is 6.64; at HSD17B2 it was 4.27; at HSD17B1 it was 4.54.
The like results for `CCC1CC(NC(=O)c2ccc(C(F)(F)F)[nH]c2=O)c2ccc(C)cc2O1` (stereo not drawn) [Compound 407, N-(2-ethyl-7-methylchroman-4-yl)-2-oxo-6-(trifluoromethyl)-1,2-dihydropyridine-3-carboxamide] were, in that order, 6.80, 4.16 and 4.90.
With `Cc1ccc2c(c1)OC1CCCCC1C2NC(=O)c1ccc(C(F)(F)F)[nH]c1=O` (stereo not drawn) [Compound 409, N-(6-methyl-2,3,4,4a,9,9a-hexahydro-1H-xanthen-9-yl)-2-oxo-6-(trifluoromethyl)-1,2-dihydropyridine-3-carboxamide], the values for the negative-log IC50 (pIC50) on HSD17B13, on HSD17B2 and at HSD17B1 were 7.40, 4.53 and below 4.52, respectively.
`O=C(NC1c2ccccc2-c2ccc(C(F)(F)F)cc21)c1ccc(C(F)(F)F)[nH]c1=O` (stereo not drawn) [Compound 414, 2-oxo-6-(trifluoromethyl)-N-(2-(trifluoromethyl)-9H-fluoren-9-yl)-1,2-dihydropyridine-3-carboxamide]: the pIC50 at HSD17B13 was 6.60; at HSD17B2 it was 4.76; on HSD17B1, 5.07.
The like results for `COc1ccc2c(c1)C(NC(=O)c1ccc(C(F)(F)F)[nH]c1=O)c1ccccc1-2` (stereo not drawn) [Compound 416, N-(2-methoxy-9H-fluoren-9-yl)-2-oxo-6-(trifluoromethyl)-1,2-dihydropyridine-3-carboxamide] were, in that order, 7.15, 4.83 and 4.70.
The like results for `Cc1ccc2c(c1)C(NC(=O)c1ccc(C(F)(F)F)[nH]c1=O)c1ccccc1-2` (stereo not drawn) [Compound 417, N-(2-methyl-9H-fluoren-9-yl)-2-oxo-6-(trifluoromethyl)-1,2-dihydropyridine-3-carboxamide] were, in that order, 7.00, 4.32 and 4.87.
For `CNc1cccc(C(NC(=O)c2ccc(C(F)(F)F)[nH]c2=O)c2ccc(C)cc2)c1` (stereo not drawn) [Compound 419, N-((3-(methylamino)phenyl)(p-tolyl)methyl)-2-oxo-6-(trifluoromethyl)-1,2-dihydropyridine-3-carboxamide], the results for the pIC50 at HSD17B13, on HSD17B2 and at HSD17B1 were 6.20, below 4.00 and below 4.52, respectively.
Consider `Cc1ccc(C(NC(=O)c2ccc(C(F)(F)F)[nH]c2=O)C2CCCCC2)cc1` (stereo not drawn) [Compound 421, N-(cyclohexyl(p-tolyl)methyl)-2-oxo-6-(trifluoromethyl)-1,2-dihydropyridine-3-carboxamide], for which the negative-log IC50 (pIC50) at HSD17B13 was 6.44; on HSD17B2 it was 4.95; at HSD17B1, 4.60.
For `Cc1ccc(C(CC2CCCCC2)NC(=O)c2ccc(C(F)(F)F)[nH]c2=O)cc1` (stereo not drawn) [Compound 422, N-(2-cyclohexyl-1-(p-tolyl)ethyl)-2-oxo-6-(trifluoromethyl)-1,2-dihydropyridine-3-carboxamide], in that order: 6.80, 4.76 and 4.97.
The like results for `Cc1ccc2c(c1)Oc1cc(C)ccc1C2NC(=O)c1cc(N2CCN(C)CC2)c(C(F)(F)F)[nH]c1=O` [Compound 435, N-(3,6-dimethyl-9H-xanthen-9-yl)-5-(4-methylpiperazin-1-yl)-2-oxo-6-(trifluoromethyl)-1,2-dihydropyridine-3-carboxamide] were, in that order, 6.96, 4.23 and 4.63.
For `Cc1ccc2c(c1)Oc1cc(C)ccc1C2NC(=O)c1cc(N2CCCCC2)c(C(F)(F)F)[nH]c1=O` [Compound 436, N-(3,6-dimethyl-9H-xanthen-9-yl)-2-oxo-5-(piperidin-1-yl)-6-(trifluoromethyl)-1,2-dihydropyridine-3-carboxamide], in that order: 7.05, 4.56 and 5.21.
Regarding `Cc1ccc2c(c1)Oc1cc(C)ccc1C2NC(=O)c1cc(N2CCOCC2)c(C(F)(F)F)[nH]c1=O` [Compound 438, N-(3,6-dimethyl-9H-xanthen-9-yl)-5-morpholino-2-oxo-6-(trifluoromethyl)-1,2-dihydropyridine-3-carboxamide], the pIC50 is 7.30 on HSD17B13, 4.63 on HSD17B2 and 4.97 at HSD17B1.
The like results for `CSc1cccc(C(NC(=O)c2ccc(C(F)(F)F)[nH]c2=O)c2ccc(C)cc2)c1` (stereo not drawn) [Compound 445, N-((3-(methylthio)phenyl)(p-tolyl)methyl)-2-oxo-6-(trifluoromethyl)-1,2-dihydropyridine-3-carboxamide] were, in that order, 6.64, 4.37 and 4.83.
For `Cc1ccc2c(c1)Oc1cc(C)ccc1C2NC(=O)c1cc(C2CCCCC2)c(C(F)(F)F)[nH]c1=O` [Compound 460, 5-cyclohexyl-N-(3,6-dimethyl-9H-xanthen-9-yl)-2-oxo-6-(trifluoromethyl)-1,2-dihydropyridine-3-carboxamide], in that order: 7.52, 4.60 and 4.89.
On to `Cc1ccc2c(c1)Oc1cc(C)ccc1C2NC(=O)c1cc(C2CCOCC2)c(C(F)(F)F)[nH]c1=O` [Compound 461, N-(3,6-dimethyl-9H-xanthen-9-yl)-2-oxo-5-(tetrahydro-2H-pyran-4-yl)-6-(trifluoromethyl)-1,2-dihydropyridine-3-carboxamide], for which the pIC50 on HSD17B13 is 7.40; on HSD17B2, 4.34; at HSD17B1 it was 5.12.
For `Cc1ccc2c(c1)Sc1cc(C)ccc1C2NC(=O)c1cc(-c2ccncc2)c(C(F)(F)F)[nH]c1=O` [Compound 495, N-(3,6-dimethyl-9H-thioxanthen-9-yl)-6-oxo-2-(trifluoromethyl)-1,6-dihydro-[3,4′-bipyridine]-5-carboxamide], in that order: 7.52, 4.71 and 5.69.
In the case of `Cc1ccc2c(c1)Oc1cc(C)ccc1C2NC(=O)c1cc(-c2cncnc2)c(C(F)(F)F)[nH]c1=O` [Compound 499, N-(3,6-dimethyl-9H-xanthen-9-yl)-2-oxo-5-(pyrimidin-5-yl)-6-(trifluoromethyl)-1,2-dihydropyridine-3-carboxamide], the negative-log IC50 (pIC50) at HSD17B13 is 7.52; on HSD17B2, 5.01; at HSD17B1, 5.31.
The like results for `Cc1ccc2c(c1)Oc1cc(C)ccc1C2NC(=O)c1cc(Cc2ccccc2)c(C(F)(F)F)[nH]c1=O` [Compound 500, 5-benzyl-N-(3,6-dimethyl-9H-xanthen-9-yl)-2-oxo-6-(trifluoromethyl)-1,2-dihydropyridine-3-carboxamide] were, in that order, 7.70, 4.83 and 5.57.
The like results for `Cc1ccc2c(c1)Oc1cc(C)ccc1C2NC(=O)c1cc(C2=CCN(C)CC2)c(C(F)(F)F)[nH]c1=O` [Compound 501, N-(3,6-dimethyl-9H-xanthen-9-yl)-1′-methyl-6-oxo-2-(trifluoromethyl)-1,1′,2′,3′,6,6′-hexahydro-[3,4′-bipyridine]-5-carboxamide] were, in that order, 6.47, 4.34 and below 4.52.
The like results for `Cc1ccc2c(c1)Oc1cc(C)ccc1C2NC(=O)c1cc(-c2ccncc2)c(C(F)(F)F)[nH]c1=O` [Compound 504, N-(3,6-dimethyl-9H-xanthen-9-yl)-6-oxo-2-(trifluoromethyl)-1,6-dihydro-[3,4′-bipyridine]-5-carboxamide] were, in that order, 7.22, 4.40 and 4.71.
`Cc1ccc2c(c1)Oc1cc(C)ccc1C2NC(=O)c1cc(-c2cnccn2)c(C(F)(F)F)[nH]c1=O` [Compound 508, N-(3,6-dimethyl-9H-xanthen-9-yl)-2-oxo-5-(pyrazin-2-yl)-6-(trifluoromethyl)-1,2-dihydropyridine-3-carboxamide]: the negative logarithm of the IC50 (pIC50) at HSD17B13 was 7.70; on HSD17B2 it was 4.34; on HSD17B1 it was 5.48.
